{"source": "patent EP0090603A2", "about": "“Antibacterial compounds” (BEECHAM GROUP PLC, priority 1982, dated 1983)", "key": {"[1]": {"system": "Staph. aureus B4 (pen. resistant)", "experiment": "MIC against Veterinary Bacteria, in vitro agar dilution", "conditions": "[…], 10^4 organisms, 18 hours at 37°C", "description": "(§1) The activity of the compounds of the Examples against various veterinarily important bacteria, was assayed in vitro using two-fold serial dilutions in Diagnostic Sensitivity Test Agar inoculated with 10^4 organisms."}, "M. suipneumoniae UCD 1": {"system": "M. suipneumoniae UCD 1", "experiment": "MIC against Mycoplasma, in vitro agar dilution", "format": "cell-based", "conditions": "Friis broth solidified with 0.9% agarose, 10^3 to 10^5 C.F.U., 6 days at 37°C"}, "S. dublin S7": {"system": "S. dublin S7", "experiment": "MIC against Veterinary Bacteria, in vitro agar dilution", "conditions": "[…], 10^4 organisms, 18 hours at 37°C", "description": "as §1"}, "M. suipneumoniae LABER": {"system": "M. suipneumoniae LABER", "experiment": "MIC against Mycoplasma, in vitro agar dilution", "format": "cell-based", "conditions": "Friis broth solidified with 0.9% agarose, 10^3 to 10^5 C.F.U., 6 days at 37°C"}, "Strep. dysgalactiae SPD1": {"system": "Strep. dysgalactiae SPD1", "experiment": "MIC against Veterinary Bacteria, in vitro agar dilution", "conditions": "[…], 10^4 organisms, 18 hours at 37°C", "description": "as §1"}, "Past. multocida PA2": {"system": "Past. multocida PA2", "experiment": "MIC against Veterinary Bacteria, in vitro agar dilution", "conditions": "[…], 10^4 organisms, 18 hours at 37°C", "description": "as §1"}, "M. dispar NCTC 10125": {"system": "M. dispar NCTC 10125", "experiment": "MIC against Mycoplasma, in vitro agar dilution", "format": "cell-based", "conditions": "Friis broth solidified with 0.9% agarose, 10^3 to 10^5 C.F.U., 6 days at 37°C"}, "Bord. bronchiseptica B08": {"system": "Bord. bronchiseptica B08", "experiment": "MIC against Veterinary Bacteria, in vitro agar dilution", "conditions": "[…], 10^4 organisms, 18 hours at 37°C", "description": "as §1"}, "Past. haemolytica PA5": {"system": "Past. haemolytica PA5", "experiment": "MIC against Veterinary Bacteria, in vitro agar dilution", "conditions": "[…], 10^4 organisms, 18 hours at 37°C", "description": "as §1"}, "M. suipneumoniae MS 16": {"system": "M. suipneumoniae MS 16", "experiment": "MIC against Mycoplasma, in vitro agar dilution", "format": "cell-based", "conditions": "Friis broth solidified with 0.9% agarose, 10^3 to 10^5 C.F.U., 6 days at 37°C"}, "M. hyorhinis ATCC 25021": {"system": "M. hyorhinis ATCC 25021", "experiment": "MIC against Mycoplasma, in vitro agar dilution", "format": "cell-based", "conditions": "Friis broth solidified with 0.9% agarose, 10^3 to 10^5 C.F.U., 6 days at 37°C"}, "Strep. uberis SPU1": {"system": "Strep. uberis SPU1", "experiment": "MIC against Veterinary Bacteria, in vitro agar dilution", "conditions": "[…], 10^4 organisms, 18 hours at 37°C", "description": "as §1"}, "[2]": {"system": "Staph. aureus 152 (pen. sens)", "experiment": "MIC against Veterinary Bacteria, in vitro agar dilution", "conditions": "[…], 10^4 organisms, 18 hours at 37°C", "description": "as §1"}, "M. pneumoniae ATCC 15492": {"system": "M. pneumoniae ATCC 15492", "experiment": "MIC against Mycoplasma, in vitro agar dilution", "format": "cell-based", "conditions": "Friis broth solidified with 0.9% agarose, 10^3 to 10^5 C.F.U., 6 days at 37°C"}, "M. suipneumoniae NB12": {"system": "M. suipneumoniae NB12", "experiment": "MIC against Mycoplasma, in vitro agar dilution", "format": "cell-based", "conditions": "Friis broth solidified with 0.9% agarose, 10^3 to 10^5 C.F.U., 6 days at 37°C"}, "Staph. aureus Oxford": {"system": "Staph. aureus Oxford", "experiment": "MIC against Veterinary Bacteria, in vitro agar dilution", "conditions": "[…], 10^4 organisms, 18 hours at 37°C", "description": "as §1"}, "M. suipneumoniae TAM 6N": {"system": "M. suipneumoniae TAM 6N", "experiment": "MIC against Mycoplasma, in vitro agar dilution", "format": "cell-based", "conditions": "Friis broth solidified with 0.9% agarose, 10^3 to 10^5 C.F.U., 6 days at 37°C"}, "[3]": {"system": "Strep. suis (group D) SPS11", "experiment": "MIC against Veterinary Bacteria, in vitro agar dilution", "conditions": "[…], 10^4 organisms, 18 hours at 37°C", "description": "as §1"}, "Bord. bronchiseptica B09": {"system": "Bord. bronchiseptica B09", "experiment": "MIC against Veterinary Bacteria, in vitro agar dilution", "conditions": "[…], 10^4 organisms, 18 hours at 37°C", "description": "as §1"}, "[4]": {"system": "M. suipneumoniae J2206/183^b", "experiment": "MIC against Mycoplasma, in vitro agar dilution", "format": "cell-based", "conditions": "Friis broth solidified with 0.9% agarose, 10^3 to 10^5 C.F.U., 6 days at 37°C"}, "[5]": {"system": "M. bovigenitalium ATCC 14173", "experiment": "MIC against Mycoplasma, in vitro agar dilution", "format": "cell-based", "conditions": "Friis broth solidified with 0.9% agarose, 10^3 to 10^5 C.F.U., 6 days at 37°C"}, "M. suipneumoniae Str. 11": {"system": "M. suipneumoniae Str. 11", "experiment": "MIC against Mycoplasma, in vitro agar dilution", "format": "cell-based", "conditions": "Friis broth solidified with 0.9% agarose, 10^3 to 10^5 C.F.U., 6 days at 37°C"}, "[6]": {"system": "M. suipneumoniae ATCC 25095", "experiment": "MIC against Mycoplasma, in vitro agar dilution", "format": "cell-based", "conditions": "Friis broth solidified with 0.9% agarose, 10^3 to 10^5 C.F.U., 6 days at 37°C"}, "M. suipneumoniae HK(2)": {"system": "M. suipneumoniae HK(2)", "experiment": "MIC against Mycoplasma, in vitro agar dilution", "format": "cell-based", "conditions": "Friis broth solidified with 0.9% agarose, 10^3 to 10^5 C.F.U., 6 days at 37°C"}, "[7]": {"system": "M. hyosynoviae ATCC 25591", "experiment": "MIC against Mycoplasma, in vitro agar dilution", "format": "cell-based", "conditions": "Friis broth solidified with 0.9% agarose, 10^3 to 10^5 C.F.U., 6 days at 37°C"}, "M. gallisepticum S6": {"system": "M. gallisepticum S6", "experiment": "MIC against Mycoplasma, in vitro agar dilution", "format": "cell-based", "conditions": "Friis broth solidified with 0.9% agarose, 10^3 to 10^5 C.F.U., 6 days at 37°C"}, "E. coli NCTC 10418": {"system": "E. coli NCTC 10418", "experiment": "MIC against Veterinary Bacteria, in vitro agar dilution", "conditions": "[…], 10^4 organisms, 18 hours at 37°C", "description": "as §1"}, "M. suipneumoniae JF 435": {"system": "M. suipneumoniae JF 435", "experiment": "MIC against Mycoplasma, in vitro agar dilution", "format": "cell-based", "conditions": "Friis broth solidified with 0.9% agarose, 10^3 to 10^5 C.F.U., 6 days at 37°C"}, "[8]": {"system": "M. suipneumoniae PW/C/210", "experiment": "MIC against Mycoplasma, in vitro agar dilution", "format": "cell-based", "conditions": "Friis broth solidified with 0.9% agarose, 10^3 to 10^5 C.F.U., 6 days at 37°C"}, "M. hyorhinis ATCC 23234": {"system": "M. hyorhinis ATCC 23234", "experiment": "MIC against Mycoplasma, in vitro agar dilution", "format": "cell-based", "conditions": "Friis broth solidified with 0.9% agarose, 10^3 to 10^5 C.F.U., 6 days at 37°C"}, "S. typhimurium S18": {"system": "S. typhimurium S18", "experiment": "MIC against Veterinary Bacteria, in vitro agar dilution", "conditions": "[…], 10^4 organisms, 18 hours at 37°C", "description": "as §1"}, "Past. multocida PA1": {"system": "Past. multocida PA1", "experiment": "MIC against Veterinary Bacteria, in vitro agar dilution", "conditions": "[…], 10^4 organisms, 18 hours at 37°C", "description": "as §1"}, "[9]": {"system": "Corynebacterium pyogenes CY1", "experiment": "MIC against Veterinary Bacteria, in vitro agar dilution", "conditions": "10^4 organisms, 18 hours at 37°C", "description": "as §1"}, "M. bovis NCTC 10131": {"system": "M. bovis NCTC 10131", "experiment": "microbe, parasite or virus in culture", "format": "cell-based", "conditions": "Friis broth solidified with 0.9% agarose, 10^3 to 10^5 C.F.U., 6 days at 37°C"}, "[10]": {"system": "Erysipelothrix rhusiopathiae NCTC 8163", "experiment": "MIC against Veterinary Bacteria, in vitro agar dilution", "conditions": "[…], 10^4 organisms, 18 hours at 37°C", "description": "as §1"}, "[11]": {"system": "M. suipneumoniae NCTC 10110", "experiment": "MIC against Mycoplasma, in vitro agar dilution", "format": "cell-based", "conditions": "Friis broth solidified with 0.9% agarose, 10^3 to 10^5 C.F.U., 6 days at 37°C"}, "E. coli E1": {"system": "E. coli E1", "experiment": "MIC against Veterinary Bacteria, in vitro agar dilution", "conditions": "[…], 10^4 organisms, 18 hours at 37°C", "description": "as §1"}}}
{"substance": "Methyl 9-[4-(5S-(2S,3S-epoxy-5S-hydroxy-4S-methylhexyl-3R,4R-dihydroxytetrahydropyran-2S-yl)-2,3-dimethylbut-2(E)-enoyloxy]nonanoate [Example 6]", "values": [{"measurement": "MIC's against Staph. aureus B4 (pen. resistant)", "setting": "[1]", "value": 1.25, "unit": "µg/mL"}, {"measurement": "MIC's against M. suipneumoniae UCD 1", "setting": "M. suipneumoniae UCD 1", "value": 10.0, "unit": "µg/mL"}, {"measurement": "MIC's against S. dublin S7", "setting": "S. dublin S7", "value": ">80", "unit": "µg/mL"}, {"measurement": "MIC's against M. suipneumoniae LABER", "setting": "M. suipneumoniae LABER", "value": 2.5, "unit": "µg/mL"}, {"measurement": "MIC's against Strep. dysgalactiae SPD1", "setting": "Strep. dysgalactiae SPD1", "value": 0.625, "unit": "µg/mL"}, {"measurement": "MIC's against Past. multocida PA2", "setting": "Past. multocida PA2", "value": 5.0, "unit": "µg/mL"}, {"measurement": "MIC's against M. dispar NCTC 10125", "setting": "M. dispar NCTC 10125", "value": 2.5, "unit": "µg/mL"}, {"measurement": "MIC's against Bord. bronchiseptica B08", "setting": "Bord. bronchiseptica B08", "value": 40, "unit": "µg/mL"}, {"measurement": "MIC's against Past. haemolytica PA5", "setting": "Past. haemolytica PA5", "value": 80, "unit": "µg/mL"}, {"measurement": "MIC's against M. suipneumoniae MS 16", "setting": "M. suipneumoniae MS 16", "value": 2.5, "unit": "µg/mL"}, {"measurement": "MIC's against M. hyorhinis ATCC 25021", "setting": "M. hyorhinis ATCC 25021", "value": 1.0, "unit": "µg/mL"}, {"measurement": "MIC's against Strep. uberis SPU1", "setting": "Strep. uberis SPU1", "value": 0.312, "unit": "µg/mL"}, {"measurement": "MIC's against Staph. aureus 152 (pen. sens)", "setting": "[2]", "value": 2.5, "unit": "µg/mL"}, {"measurement": "MIC's against M. pneumoniae ATCC 15492", "setting": "M. pneumoniae ATCC 15492", "value": 10.0, "unit": "µg/mL"}, {"measurement": "MIC's against M. suipneumoniae NB12", "setting": "M. suipneumoniae NB12", "value": 2.5, "unit": "µg/mL"}, {"measurement": "MIC's against Staph. aureus Oxford", "setting": "Staph. aureus Oxford", "value": 0.625, "unit": "µg/mL"}, {"measurement": "MIC's against M. suipneumoniae TAM 6N", "setting": "M. suipneumoniae TAM 6N", "value": 10.0, "unit": "µg/mL"}, {"measurement": "MIC's against Strep. suis (group D) SPS11", "setting": "[3]", "value": 10, "unit": "µg/mL"}, {"measurement": "MIC's against Bord. bronchiseptica B09", "setting": "Bord. bronchiseptica B09", "value": 5.0, "unit": "µg/mL"}, {"measurement": "MIC's against M. suipneumoniae J2206/183^b", "setting": "[4]", "value": 10.0, "unit": "µg/mL"}, {"measurement": "MIC's against M. bovigenitalium ATCC 14173", "setting": "[5]", "value": 0.25, "unit": "µg/mL"}, {"measurement": "MIC's against M. suipneumoniae Str. 11", "setting": "M. suipneumoniae Str. 11", "value": 2.5, "unit": "µg/mL"}, {"measurement": "MIC's against M. suipneumoniae ATCC 25095", "setting": "[6]", "value": 2.5, "unit": "µg/mL"}, {"measurement": "MIC's against M. suipneumoniae HK(2)", "setting": "M. suipneumoniae HK(2)", "value": 10.0, "unit": "µg/mL"}, {"measurement": "MIC's against M. hyosynoviae ATCC 25591", "setting": "[7]", "value": 1.0, "unit": "µg/mL"}, {"measurement": "MIC's against M. gallisepticum S6", "setting": "M. gallisepticum S6", "value": ">10.0", "unit": "µg/mL"}, {"measurement": "MIC's against E. coli NCTC 10418", "setting": "E. coli NCTC 10418", "value": ">80", "unit": "µg/mL"}, {"measurement": "MIC's against M. suipneumoniae JF 435", "setting": "M. suipneumoniae JF 435", "value": 5.0, "unit": "µg/mL"}, {"measurement": "MIC's against M. suipneumoniae PW/C/210", "setting": "[8]", "value": 2.5, "unit": "µg/mL"}, {"measurement": "MIC's against M. hyorhinis ATCC 23234", "setting": "M. hyorhinis ATCC 23234", "value": 1.0, "unit": "µg/mL"}, {"measurement": "MIC's against S. typhimurium S18", "setting": "S. typhimurium S18", "value": ">80", "unit": "µg/mL"}, {"measurement": "MIC's against Past. multocida PA1", "setting": "Past. multocida PA1", "value": 5.0, "unit": "µg/mL"}, {"measurement": "MIC's against Corynebacterium pyogenes CY1", "setting": "[9]", "value": ">80", "unit": "µg/mL"}, {"measurement": "MIC's against M. bovis NCTC 10131", "setting": "M. bovis NCTC 10131", "value": 0.1, "unit": "µg/mL"}, {"measurement": "MIC's against Erysipelothrix rhusiopathiae NCTC 8163", "setting": "[10]", "value": ">80", "unit": "µg/mL"}, {"measurement": "MIC's against M. suipneumoniae NCTC 10110", "setting": "[11]", "value": 10.0, "unit": "µg/mL"}, {"measurement": "MIC's against E. coli E1", "setting": "E. coli E1", "value": ">80", "unit": "µg/mL"}]}
